Source: patent US20230146675A1, “PYRIMIDO[5,4-d]PYRIMIDINE DERIVATIVES AS ENT INHIBITORS FOR THE TREATMENT OF CANCERS, AND COMBINATION THEREOF WITH ADENOSINE RECEPTOR ANTAGONISTS” (ITEOS BELGIUM SA, priority 2020, published 2023)
Like-named read-outs stand apart in the source and are kept apart here.

Key:
Type in all cases: biochemical
[1] = target: T1, Human phosphodiesterase-10A2 (Homo sapiens, UniProt Q9Y233); assay: PDE10A2 (h) assay
T1 construct: host or cells: Sf9 cells
Experimental: (§1) The test compound (compound 72), reference compound or water (control) were added to a buffer containing 40 mM Tris/HCl (pH 7.4) and 8 mM MgCl2, 180 nM cAMP and 0.1 μCi [3H]cAMP. Thereafter, the reaction was initiated by addition of the enzyme (about 0.8 U) and the mixture was incubated for 20 min at 22° C. For basal control measurements, the enzyme was omitted from the reaction mixture. Following incubation SPA beads were added. After 30 min at 22° C. under shaking, the amount of [3H]5′AMP was quantified with a scintillation counter (MicroBeta, Perkin Elmer). The results were expressed as a percent inhibition of the control enzyme activity. The standard inhibitory reference compound was trequinsin, which was tested in each experiment at several concentrations to obtain an inhibition curve from which its IC50 value was calculated. • Human phosphodiesterase-10A2 quantified by measuring the formation of 5′AMP from cAMP using a human recombinant enzyme expressed in Sf9 cells.
The test compound (compound 72), reference compound or water (control) were added to a buffer containing 40 mM Tris/HCl (pH 7.4) and 8 mM MgCl2, 180 nM cAMP and 0.1 μCi [3H]cAMP. […] After 30 min at 22° C. under shaking, the amount of [3H]5′AMP was quantified with a scintillation counter (MicroBeta, Perkin Elmer). The results were expressed as a percent inhibition of the control enzyme activity. […]

[2] = target: T2, Human phosphodiesterase-5 (Homo sapiens, UniProt O76074); assay: PDE5 (h) (non-selective) assay
T2 construct: using an enzyme isolated from human platelets at Eurofins-Cerep; tissue Eurofins-Cerep; host or cells: human platelets
Experimental: The test compound (compound 72), reference compound or water (control) were added to a buffer containing 40 mM Tris/HCl (pH 7.4), 8 mM MgCl2 0.21% BSA, 0.5 μg/ml calmoduline and 0.5 mM CaCl2), 1.125 μM cGMP and 0.027 μCi [3H]cGMP. Thereafter, the reaction was initiated by addition of the enzyme (about 0.2 U) and the mixture was incubated for 20 min at 22° C. For basal control measurements, the enzyme was omitted from the reaction mixture. Following incubation SPA beads were added. After 30 min at 22° C. under shaking, the amount of [3H]5′GMP was quantified with a scintillation counter (MicroBeta, Perkin Elmer). The results were expressed as a percent inhibition of the control enzyme activity. The standard inhibitory reference compound was Nitrendipine, which was tested in each experiment at several concentrations to obtain an inhibition curve from which its IC50 value was calculated. • Human phosphodiesterase-5 quantified by measuring the formation of 5′GMP from cGMP using an enzyme isolated from human platelets at Eurofins-Cerep.
The test compound (compound 72), reference compound or water (control) were added to a buffer containing 40 mM Tris/HCl (pH 7.8), 3 mM MgCl2, 1.4 mM DTT, 0.21% BSA, 200 mM NH4Cl, 1 μM cGMP and 0.1 μCi [3H]cGMP. […] After 20 min at 22° C. under shaking, the amount of [3H]5′GMP was quantified with a scintillation counter (MicroBeta, Perkin Elmer). […]

[3] = target: T3, Human phosphodiesterase-11A (Homo sapiens, UniProt Q9HCR9); assay: PDE11A (h) assay
T3 construct: host or cells: Sf9 cells
Experimental: The test compound (compound 72), reference compound or water (control) were added to a buffer containing 40 mM Tris/HCl (pH 7.4) and 8 mM MgCl2, 450 nM cAMP and 0.25 μCi [3H]cAMP. Thereafter, the reaction was initiated by addition of the enzyme (about 4 ng) and the mixture was incubated for 15 min at 22° C. For basal control measurements, the enzyme was omitted from the reaction mixture. Following incubation SPA beads were added. After 30 min at 22° C. under shaking, the amount of [3H]5′AMP was quantified with a scintillation counter (Topcount, Packard). The results were expressed as a percent inhibition of the control enzyme activity. The standard inhibitory reference compound was milrinone, which was tested in each experiment at several concentrations to obtain an inhibition curve from which its IC50 value was calculated. • Human phosphodiesterase-11A quantified by measuring the formation of 5′AMP from cAMP using a human recombinant enzyme expressed in Sf9 cells.
The test compound (compound 72), reference compound or water (control) were added to a buffer containing 40 mM Tris/HCl (pH 7.4) and 8 mM MgCl2, 450 nM cAMP and 0.25 μCi [3H]cAMP. […] After 30 min at 22° C. under shaking, the amount of [3H]5′AMP was quantified with a scintillation counter (MicroBeta, Perkin Elmer). The results were expressed as a percent inhibition of the control enzyme activity.

[4] = target: T4, Human phosphodiesterase-4A1A (Homo sapiens, UniProt P27815); assay: PDE4A1A (h) assay
T4 construct: host or cells: Sf9 cells
Experimental: The test compound (compound 72), reference compound or water (control) were added to a buffer containing 40 mM Tris/HCl (pH 7.4) and 8 mM MgCl2, 450 nM cAMP and 0.25 μCi [3H]cAMP. Thereafter, the reaction was initiated by addition of the enzyme (about 3 U) and the mixture was incubated for 20 min at 22° C. For basal control measurements, the enzyme was omitted from the reaction mixture. Following incubation SPA beads were added. After 30 min at 22° C. under shaking, the amount of [3H]5′AMP was quantified with a scintillation counter (MicroBeta, Perkin Elmer). The results were expressed as a percent inhibition of the control enzyme activity.
as §1, with “450” for “180”, “0.25” for “0.1”, “Thereafter, the reaction was initiated by addition of the enzyme (about 0.8 U) and the mixture was incubated for 20 min at 22° C. For basal control measurements, the enzyme was omitted from the reaction mixture. Following incubation SPA beads were added.” left out, “Ro 20-1724,” for “trequinsin,”, “phosphodiesterase-4B1” for “phosphodiesterase-10A2”

T3 sequence (Q9HCR9 whole entry): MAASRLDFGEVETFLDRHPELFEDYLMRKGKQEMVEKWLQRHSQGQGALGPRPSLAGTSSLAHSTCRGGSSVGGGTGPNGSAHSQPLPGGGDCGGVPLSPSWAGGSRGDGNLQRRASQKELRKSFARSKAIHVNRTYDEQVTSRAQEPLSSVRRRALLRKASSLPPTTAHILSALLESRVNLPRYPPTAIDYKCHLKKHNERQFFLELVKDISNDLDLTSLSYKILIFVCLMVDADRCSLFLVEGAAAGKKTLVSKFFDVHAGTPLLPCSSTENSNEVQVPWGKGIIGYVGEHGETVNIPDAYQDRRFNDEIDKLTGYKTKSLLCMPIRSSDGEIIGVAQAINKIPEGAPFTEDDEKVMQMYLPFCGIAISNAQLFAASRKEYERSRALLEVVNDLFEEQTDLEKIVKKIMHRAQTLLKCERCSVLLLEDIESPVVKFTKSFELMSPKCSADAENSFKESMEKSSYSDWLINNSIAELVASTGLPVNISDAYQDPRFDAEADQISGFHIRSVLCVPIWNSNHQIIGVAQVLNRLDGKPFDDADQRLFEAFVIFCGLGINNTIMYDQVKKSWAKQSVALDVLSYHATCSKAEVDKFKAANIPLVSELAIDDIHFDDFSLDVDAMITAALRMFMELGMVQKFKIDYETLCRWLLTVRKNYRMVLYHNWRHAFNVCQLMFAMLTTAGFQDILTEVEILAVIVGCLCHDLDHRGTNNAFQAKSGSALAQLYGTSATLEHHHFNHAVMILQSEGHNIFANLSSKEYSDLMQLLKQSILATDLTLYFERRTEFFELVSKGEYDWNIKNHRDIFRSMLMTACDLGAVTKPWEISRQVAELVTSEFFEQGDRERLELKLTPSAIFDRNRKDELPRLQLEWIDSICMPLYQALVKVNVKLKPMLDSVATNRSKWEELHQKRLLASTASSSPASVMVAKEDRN
T4 sequence (P27815 1-647 isoform P27815-4): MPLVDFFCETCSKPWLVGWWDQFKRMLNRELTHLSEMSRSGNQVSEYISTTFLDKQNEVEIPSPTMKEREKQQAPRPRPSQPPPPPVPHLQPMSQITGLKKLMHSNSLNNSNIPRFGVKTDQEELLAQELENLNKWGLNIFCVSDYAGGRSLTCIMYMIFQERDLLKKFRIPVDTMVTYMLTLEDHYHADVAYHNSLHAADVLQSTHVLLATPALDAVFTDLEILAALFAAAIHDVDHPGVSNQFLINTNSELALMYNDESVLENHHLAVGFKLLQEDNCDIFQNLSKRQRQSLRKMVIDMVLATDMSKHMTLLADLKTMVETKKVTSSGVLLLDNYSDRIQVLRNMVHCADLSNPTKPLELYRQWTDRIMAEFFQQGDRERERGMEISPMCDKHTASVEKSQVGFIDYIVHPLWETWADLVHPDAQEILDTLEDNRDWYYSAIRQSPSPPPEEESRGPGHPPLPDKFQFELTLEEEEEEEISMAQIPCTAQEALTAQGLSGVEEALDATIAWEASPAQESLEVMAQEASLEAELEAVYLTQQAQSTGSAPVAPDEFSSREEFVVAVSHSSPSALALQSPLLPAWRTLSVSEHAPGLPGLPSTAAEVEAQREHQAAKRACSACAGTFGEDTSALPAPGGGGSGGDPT
T1 sequence (Q9Y233 267-1055): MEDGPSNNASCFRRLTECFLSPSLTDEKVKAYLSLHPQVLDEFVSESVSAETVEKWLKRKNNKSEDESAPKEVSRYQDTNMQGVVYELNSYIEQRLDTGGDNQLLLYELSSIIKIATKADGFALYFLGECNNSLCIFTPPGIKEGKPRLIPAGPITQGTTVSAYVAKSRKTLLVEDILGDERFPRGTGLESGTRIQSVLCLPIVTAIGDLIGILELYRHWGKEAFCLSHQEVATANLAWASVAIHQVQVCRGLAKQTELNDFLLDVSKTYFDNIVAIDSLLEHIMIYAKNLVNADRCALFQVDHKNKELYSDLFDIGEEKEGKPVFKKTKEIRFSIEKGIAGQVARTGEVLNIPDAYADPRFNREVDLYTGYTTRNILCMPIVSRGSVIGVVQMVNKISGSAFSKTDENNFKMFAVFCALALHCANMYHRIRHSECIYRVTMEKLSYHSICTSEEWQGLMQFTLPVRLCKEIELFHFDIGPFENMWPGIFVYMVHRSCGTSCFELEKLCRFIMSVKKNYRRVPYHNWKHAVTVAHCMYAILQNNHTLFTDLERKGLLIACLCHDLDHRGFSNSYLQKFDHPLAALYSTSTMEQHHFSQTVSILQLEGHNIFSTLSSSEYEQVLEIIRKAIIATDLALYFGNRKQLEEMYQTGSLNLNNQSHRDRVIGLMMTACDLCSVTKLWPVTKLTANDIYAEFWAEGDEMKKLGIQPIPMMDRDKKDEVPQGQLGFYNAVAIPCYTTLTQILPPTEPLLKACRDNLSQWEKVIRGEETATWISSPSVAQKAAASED

Q: What does the source list for `COCCN(CCOC)c1nc(N2CCN(C)C(=O)C2)c2nc(N(CCOC)CCOC)nc(N3CCC(OC)CC3)c2n1` [Compound 72, 4-(2,6-bis(bis(2-methoxyethyl)amino)-8-(4-methoxypiperidin-1-yl)pyrimido[5,4-d]pyrimidin-4-yl)-1-methylpiperazin-2-one]?
A: IC50 [1]: 1 to 10 µM; IC50 ([2]; read-out: PDE5 (h) (non-selective) IC50): 1 to 10 µM; IC50 ([2]; read-out: PDE5 IC50): 1.08 µM; IC50 [3]: > 10 µM; potency for PDE11A as compared to dipyridamole [3]: reduced as compared to dipyridamole; IC50 [4]: > 10 µM
